Two molecules from paper PMC5870139 (Journal of the American Chemical Society, 2018) can be followed below.

The target of the test is T1, TagT (Bacillus subtilis, UniProt Q7WY78).
T1 sequence (Q7WY78 1-322): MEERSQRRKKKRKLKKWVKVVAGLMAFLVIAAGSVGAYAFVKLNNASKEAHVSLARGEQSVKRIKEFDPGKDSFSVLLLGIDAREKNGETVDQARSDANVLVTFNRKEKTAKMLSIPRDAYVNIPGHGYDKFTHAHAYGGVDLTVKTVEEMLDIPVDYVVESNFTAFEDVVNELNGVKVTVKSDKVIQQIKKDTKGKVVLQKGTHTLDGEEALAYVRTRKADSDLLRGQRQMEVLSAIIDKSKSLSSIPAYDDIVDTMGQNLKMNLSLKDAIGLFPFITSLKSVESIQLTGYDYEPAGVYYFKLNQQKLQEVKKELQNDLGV
The test can be described thus: transfer of radiolabelled WTA precursor, PAGE autoradiography. Format: biochemical. The conditions noted are these: acceptor; co-substrate LIIA^WTA.

Consider `CC(=O)N[C@H]1[C@H](O[C@H]2[C@H](O)[C@@H](NC(C)=O)[C@H](O[C@H]3[C@H](O)[C@@H](NC(C)=O)C(O)O[C@@H]3CO)O[C@@H]2CO)O[C@H](CO)[C@@H](O[C@@H]2O[C@H](CO)[C@@H](O[C@@H]3O[C@H](CO)[C@@H](O)[C@H](O)[C@H]3NC(C)=O)[C@H](O)[C@H]2NC(C)=O)[C@@H]1O` (some centres unmarked) [n=3, chitin oligosaccharide containing five GlcNAcs], for which the “transfer of radiolabelled WTA precursor, PAGE autoradiography” value was “LcpB and TagT transferred WTA onto chitin oligosaccharides containing five or more sugars”.
Next, `CC(=O)N[C@H]1[C@H](O[C@H]2[C@H](O)[C@@H](NC(C)=O)C(O[C@H]3[C@H](O)[C@@H](NC(C)=O)C(O[C@H]4[C@H](O)[C@@H](NC(C)=O)C(O[C@H]5[C@H](O)[C@@H](NC(C)=O)C(O[C@H]6[C@H](O)[C@@H](NC(C)=O)C(O)O[C@@H]6CO)O[C@@H]5CO)O[C@@H]4CO)O[C@@H]3CO)O[C@@H]2CO)O[C@H](CO)[C@@H](O)[C@@H]1O` (some centres unmarked) [n=4, chitin oligosaccharide containing six GlcNAcs]: “LcpB and TagT transferred WTA onto chitin oligosaccharides containing five or more sugars”.
